Data set [1] in a line: Test for solubility in solvent. The format is physicochemical. The method, then:
Each of cyanine dyes as shown below in Table 2 was dissolved in methanol and the solubility was determined at room temperature with the results indicated below in Table 2.

Data set [2] can be described thus: Absorption maximum and molar absorptivity in solution. The format is physicochemical. Details: ε: unit not given here.

Regarding `CCOc1ccc2c(c1)C(C)(C)C(=CC=CC=CC=CC1=[N+](C)c3ccc(OCC)cc3C1(C)C)N2C` [Compound A], the “solubility in solvents (in words)” value in data set [1] is listed as “does not exhibit good solubility”. Same read-out and setting: the entry for `CCOc1ccc2c(c1)C(C)(C)C(=CC=CC=CC1=[N+](C)c3ccc(OCC)cc3C1(C)C)N2C` [Compound B] is “not satisfactory in solubility”. In the case of `CCN1C(=CC=CC=CC2=[N+](CC)c3c(OC)cc(OC)cc3C2(C)C)C(C)(C)c2cc(OC)cc(OC)c21` [Preparation Example 1], in data set [2] (alcohol), the ε was 1.84×10^5 and the λmax came to 693 nm.

In the case of `CCOc1cc(OCC)c2c(c1)C(C)(C)C(=CC=CC=CC1=[N+](CC)c3c(OCC)cc(OCC)cc3C1(C)C)N2CC` [Preparation Example 2], in data set [2] (dichloromethane), the ε is listed as 1.72×10^5. In the case of `CCOc1cc(C)c2c(c1)C(C)(C)C(=CC=CC=CC1=[N+](CC)c3c(C)cc(OCC)cc3C1(C)C)N2CC` [Preparation Example 7], the ε in data set [2] (dichloroethane) is given as 1.75×10^5.

The values are drawn from patent USRE35044E, “Cyanine compounds” (Asahi Chemical Co., Ltd., priority 1987, dated 1995).
